Measured values: PMC11090211 (Chemico-biological interactions, 2024)
Where two headings read alike, the source gives them in different places.

What was measured:
H44R/H48Q yeast ADH [1] = biological target: T1, H44R/H48Q yeast ADH (Saccharomyces cerevisiae, UniProt P00330, H45R/H49Q); type: biochemical
[2] = biological target: T2, H44R/H48Q yeast alcohol dehydrogenase (Saccharomyces cerevisiae, UniProt P00330, H45R/H49Q)
[3] = test system: wild-type yeast alcohol dehydrogenase; details: cited from earlier work
wild-type yeast ADH [4] = biological target: T3, wild-type yeast ADH (Saccharomyces cerevisiae, UniProt P00330); details: cited from earlier work
T3 sequence (P00330 1-348): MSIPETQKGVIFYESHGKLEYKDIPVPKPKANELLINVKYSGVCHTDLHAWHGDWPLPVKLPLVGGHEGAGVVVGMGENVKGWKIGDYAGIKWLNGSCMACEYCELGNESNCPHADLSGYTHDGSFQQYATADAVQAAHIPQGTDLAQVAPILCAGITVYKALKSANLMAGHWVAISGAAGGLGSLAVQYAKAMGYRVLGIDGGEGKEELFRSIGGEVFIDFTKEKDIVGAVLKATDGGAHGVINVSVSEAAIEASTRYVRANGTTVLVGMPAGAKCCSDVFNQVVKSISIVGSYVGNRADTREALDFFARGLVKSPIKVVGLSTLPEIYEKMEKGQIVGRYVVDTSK

[5] = test system: H44R yeast alcohol dehydrogenase; details: pH 7.3, 30 °C, cited from earlier work
[6] = test system: H48Q yeast alcohol dehydrogenase; details: pH 7.3, 30 °C, cited from earlier work
wild-type yeast ADH [7] = biological target: T3, wild-type yeast ADH; test: Inactivation by diethyl pyrocarbonate; type: biochemical; details: pH 8.0, 30 °C
H44R yeast ADH [8] = biological target: T4, H44R yeast ADH (Saccharomyces cerevisiae, UniProt P00330, H45R); test: Inactivation by diethyl pyrocarbonate; type: biochemical; details: pH 8.0, 30 °C
T4 sequence (P00330 2-348 H45R): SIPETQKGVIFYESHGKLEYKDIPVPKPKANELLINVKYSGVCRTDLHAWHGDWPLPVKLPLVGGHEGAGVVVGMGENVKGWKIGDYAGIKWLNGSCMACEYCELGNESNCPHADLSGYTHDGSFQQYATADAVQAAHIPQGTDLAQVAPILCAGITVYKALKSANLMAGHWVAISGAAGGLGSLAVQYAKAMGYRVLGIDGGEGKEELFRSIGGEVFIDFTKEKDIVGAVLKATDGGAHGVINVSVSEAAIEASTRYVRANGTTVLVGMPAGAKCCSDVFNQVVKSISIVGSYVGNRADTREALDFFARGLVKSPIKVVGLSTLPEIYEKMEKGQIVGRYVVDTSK

H48Q yeast ADH [9] = biological target: T5, H48Q yeast ADH (Saccharomyces cerevisiae, UniProt P00330, H49Q); test: Inactivation by diethyl pyrocarbonate; type: biochemical; details: pH 8.0, 30 °C
T5 sequence (P00330 2-348 H49Q): as the sequence (P00330 2-348 H45R) above, with R44H, H48Q counted along it

H44R/H48Q yeast ADH [10] = biological target: T1, H44R/H48Q yeast ADH; test: Inactivation by diethyl pyrocarbonate; type: biochemical; details: pH 8.0, 30 °C
wild-type yeast ADH [11] = biological target: T3, wild-type yeast ADH; details: cited from earlier work; remark: listed apart in the source
H44R/H48Q yeast ADH [12] = biological target: T1, H44R/H48Q yeast ADH; type: biochemical; details: for VD1, isotope effect for oxidation of ethanol: 550 mM ethanol, 2 mM NAD^+, single concentration, duplicate
wild-type yeast ADH [13] = biological target: T3, wild-type yeast ADH; details: ethanol or ethanol-d5 15–200 mM, 10 mM NAD^+, 30 °C, ref 6 and 9, cited from earlier work
H44R yeast ADH [14] = biological target: T4, H44R yeast ADH; details: ethanol or ethanol-d5 15–200 mM, 10 mM NAD^+, 30 °C, ref 6 and 9, cited from earlier work
H48Q yeast ADH [15] = biological target: T5, H48Q yeast ADH; details: ethanol or ethanol-d5 15–200 mM, 10 mM NAD^+, 30 °C, ref 6 and 9, cited from earlier work
[16] = biological target: T2, H44R/H48Q yeast alcohol dehydrogenase; test: biochemical
[17] = pH 7.3, 30 °C, 83 mM potassium phosphate, 40 mM KCl
[18] = read-out: Kiq, inhibition (dissociation) constant for NADH, pH 7.3, 30 °C, 83 mM potassium phosphate, 40 mM KCl
[19] = 83 mM potassium phosphate, 40 mM KCl
[20] = read-out: Kiq, inhibition (dissociation) constant for NADH, 83 mM potassium phosphate, 40 mM KCl
[21] = 90 μM diethyl pyrocarbonate, 33 mM sodium phosphate buffer
[22] = after 90 μM diethyl pyrocarbonate
[23] = read-out: Kia, inhibition (dissociation) constant for NAD^+, 83 mM potassium phosphate, 40 mM KCl
[24] = read-out: Ki, CF3CH2OH, 83 mM potassium phosphate, 40 mM KCl

T2 sequence (P00330 2-348 H45R/H49Q): as the sequence (P00330 2-348 H45R) above, with H48Q counted along it
T1 sequence (P00330 2-348 H45R/H49Q): as the sequence (P00330 2-348 H45R) above, with H48Q counted along it

## NC(=O)C1=CN([C@@H]2O[C@H](COP(=O)([O-])OP(=O)([O-])OC[C@H]3O[C@@H](n4cnc5c(N)ncnc54)[C@H](O)[C@@H]3O)[C@@H](O)[C@H]2O)C=CC1.[Na+].[Na+] [NADH]
H44R/H48Q yeast ADH [1]
  pK of pH dependence of Kiq: 8.9 ± 0.2
  pK of pH dependence of V2/Etkq: 8.8 ± 0.1
H44R/H48Q yeast ADH [1]; EH form
  Kiq, limiting value ka: ka 7.9 ± 1.4 μM
  V2/Etkq, limiting value ka: ka 16 ± 2 μM^−1s^−1
H44R/H48Q yeast ADH [1]; essentially pH independent
  rate constant for dissociation, calculated from V2Kiq/EtKq: 120 s⁻¹
[2]; [17]
  Kq, Michaelis constant for NADH: 42 pM
[2]; [18]
  Ki: 3.5 µM
[3]; [17]
  Kq, Michaelis constant for NADH: 94 pM
[3]; [18]
  Ki: 31 µM
wild-type yeast ADH [4]; EH form
  Kiq, limiting value ka: 15 ± 2 µM
wild-type yeast ADH [4]
  V2/Etkq, limiting value: 32 ± 3 µM⁻¹ s⁻¹
  pK of pH dependence of Kiq: 7.4 ± 0.2
  pK of pH dependence of V2/Etkq: 7.8 ± 0.2
[5]; [19]
  Kq, Michaelis constant for NADH: 10 pM
[5]; [20]
  Ki: 16 µM
[6]; [19]
  Kq, Michaelis constant for NADH: 110 pM
[6]; [20]
  Ki: 13 µM

## CCOC(=O)OC(=O)OCC [diethyl pyrocarbonate]
wild-type yeast ADH [7]; [21]
  Inactivation constant: 180 M⁻¹ s⁻¹
wild-type yeast ADH [7]; [22]
  Residual activity (% of initial): 3.1 % of initial
H44R yeast ADH [8]; [21]
  Inactivation constant: 31 M⁻¹ s⁻¹
H44R yeast ADH [8]; [22]
  Residual activity (% of initial): 30 % of initial
H48Q yeast ADH [9]; [21]
  Inactivation constant: 25 M⁻¹ s⁻¹
H48Q yeast ADH [9]; [22]
  Residual activity (% of initial): 55 % of initial
H44R/H48Q yeast ADH [10]; 120 μM diethyl pyrocarbonate, 33 mM sodium phosphate buffer
  Inactivation constant: 11 M⁻¹ s⁻¹
H44R/H48Q yeast ADH [10]; after 120 μM diethyl pyrocarbonate
  Residual activity (% of initial): 64 % of initial
wild-type yeast ADH [11]; enzyme-NADH complex
  pK of the rate of inactivation by diethyl pyrocarbonate: 8.7
wild-type yeast ADH [11]; free enzyme
  pK value of the rate of inactivation by diethyl pyrocarbonate: 7.1

## N=C([O-])c1ccc[n+]([C@@H]2O[C@H](COP(=O)(O)OP(=O)([O-])OC[C@H]3O[C@@H](n4cnc5c(N)ncnc54)[C@H](O)[C@@H]3O)[C@@H](O)[C@H]2O)c1.[Li+] [NAD^+]
H44R/H48Q yeast ADH [1]
  pK of pH dependence of Kia: ~pH independent
  pK of pH dependence of V1/EtKa: 8.03 ± 0.04
H44R/H48Q yeast ADH [1]; read-out: Kia, at pH 7
  Ki: 160 µM
[2]; [17]
  Ka, Michaelis constant for NAD^+: 320 µM
[3]; [17]
  Ka, Michaelis constant for NAD^+: 160 µM
[3]; read-out: Kia, inhibition (dissociation) constant for NAD^+, pH 7.3, 30 °C, 83 mM potassium phosphate, 40 mM KCl
  Ki: 950 µM
wild-type yeast ADH [4]; EH form
  Kia, limiting value ka: 0.54 ± 0.06 mM
wild-type yeast ADH [4]; at pH 7
  V1/EtKa: 1570 (at pH 7) mM^−1s^−1
wild-type yeast ADH [4]
  pK of pH dependence of Kia: 8.1 ± 0.2
  slope of pH dependence of V1/EtKa: −0.11 ± 0.02
[5]; [19]
  Ka, Michaelis constant for NAD^+: 150 µM
[5]; [23]
  Ki: 260 µM
[6]; [19]
  Ka, Michaelis constant for NAD^+: 100 µM
[6]; [23]
  Ki: 410 µM

## CCO [ethanol]
H44R/H48Q yeast ADH [12]; pH 6 (MES)
  VD1, isotope effect for oxidation of ethanol: 2.8
H44R/H48Q yeast ADH [12]; pH 7 (MOPS)
  VD1, isotope effect for oxidation of ethanol: 4.2
H44R/H48Q yeast ADH [12]; pH 8 (TAPS)
  VD1, isotope effect for oxidation of ethanol: 2.9
H44R/H48Q yeast ADH [12]; pH 9 (TAPS)
  VD1, isotope effect for oxidation of ethanol: 2.3
H44R/H48Q yeast ADH [12]; pH 10 (CAPSO)
  VD1, isotope effect for oxidation of ethanol: 1.8
H44R/H48Q yeast ADH [1]
  pK of pH dependence of V1/EtKb: 8.5 ± 0.1
H44R/H48Q yeast ADH [1]; deprotonation of H2E, NAD^+ and ethanol
  pK1 of pH dependence of V1/Et: 7.0 ± 0.2
H44R/H48Q yeast ADH [1]; deprotonation of HE, NAD^+ and ethanol
  pK2 of pH dependence of V1/Et: 9.2 ± 0.3
[2]; [17]
  V1/Et, turnover number for ethanol oxidation: 24 s⁻¹
[2]; product inhibition studies, pH 7.3, 30 °C
  KbKia/Ka, slope inhibition constant: 36 mM
[3]; [17]
  V1/Et, turnover number for ethanol oxidation: 360 s⁻¹
wild-type yeast ADH [13]; pH 6
  VD1, isotope effect for oxidation of ethanol: 2.0
wild-type yeast ADH [13]; pH 7
  VD1, isotope effect for oxidation of ethanol: 1.8
wild-type yeast ADH [13]; pH 8
  VD1, isotope effect for oxidation of ethanol: 1.8
wild-type yeast ADH [13]; pH 9
  VD1, isotope effect for oxidation of ethanol: 1.4
wild-type yeast ADH [13]; pH 10
  VD1, isotope effect for oxidation of ethanol: 1.3
wild-type yeast ADH [4]; EH form
  V1/EtKb, limiting value ka: 3500 ± 900 M⁻¹ s⁻¹
wild-type yeast ADH [4]
  pK of pH dependence of V1/Et: 7.3 ± 0.1
  pK of pH dependence of V1/EtKb: 7.8 ± 0.2
[5]; [19]
  V1/Et, turnover number for ethanol oxidation: 60 s⁻¹
[6]; [19]
  V1/Et, turnover number for ethanol oxidation: 30 s⁻¹
H44R yeast ADH [14]; pH 6
  VD1, isotope effect for oxidation of ethanol: 3.5
H44R yeast ADH [14]; pH 7
  VD1, isotope effect for oxidation of ethanol: 1.7
H44R yeast ADH [14]; pH 8
  VD1, isotope effect for oxidation of ethanol: 1.2
H44R yeast ADH [14]; pH 9
  VD1, isotope effect for oxidation of ethanol: 1.1
H44R yeast ADH [14]; pH 10
  VD1, isotope effect for oxidation of ethanol: 1.1
H48Q yeast ADH [15]; pH 6
  VD1, isotope effect for oxidation of ethanol: 3.9
H48Q yeast ADH [15]; pH 7
  VD1, isotope effect for oxidation of ethanol: 4.2
H48Q yeast ADH [15]; pH 8
  VD1, isotope effect for oxidation of ethanol: 3.3
H48Q yeast ADH [15]; pH 9
  VD1, isotope effect for oxidation of ethanol: 2.9
H48Q yeast ADH [15]; pH 10
  VD1, isotope effect for oxidation of ethanol: 2.3

## CC=O [acetaldehyde]
H44R/H48Q yeast ADH [12]; 1 mM acetaldehyde with 0.15 mM NADH, over the pH range
  isotope effect (for VD2/Kp), acetaldehyde reduction: ~ 2
H44R/H48Q yeast ADH [1]
  pK of pH dependence of V2/Et: 9.6 ± 0.1
H44R/H48Q yeast ADH [1]; EH form
  V2/Et, limiting value ka: ka 850 ± 60 s^−1
H44R/H48Q yeast ADH [1]; EH form, NADH and acetaldehyde
  V1/EtKp, limiting value ka: ka 32 ± 3 mM^−1s^−1
H44R/H48Q yeast ADH [1]; NADH and acetaldehyde
  pK of pH dependence of V1/EtKp: 9.5 ± 0.1
[2]; [17]
  Kp, Michaelis constant for acetaldehyde: 22 mM
  V2/Et, turnover number for acetaldehyde reduction: 1040 s⁻¹
  V2/Etkp, catalytic efficiency for acetaldehyde reduction: 47 mM⁻¹ s⁻¹
[3]; NADH and acetaldehyde, pH 7.3, 30 °C
  V2/EtkpKiq: 77000 mM^−2 s^−1
[3]; [17]
  Kp, Michaelis constant for acetaldehyde: 0.74 mM
  V2/Et, turnover number for acetaldehyde reduction: 1800 s⁻¹
[3]; read-out: Kip, intercept inhibition constant, product inhibition studies, pH 7.3, 30 °C
  Ki: 1500 µM
wild-type yeast ADH [4]; EH form, NADH and acetaldehyde
  V1/EtKp, limiting value ka: ka 3200 ± 200 mM^−1s^−1
wild-type yeast ADH [4]; EH form
  V2/Et, limiting value ka: 3600 ± 300 s⁻¹
wild-type yeast ADH [4]; NADH and acetaldehyde
  pK of pH dependence of V1/EtKp: 7.7 ± 0.1
wild-type yeast ADH [4]
  pK of pH dependence of V2/Et: 7.8 ± 0.2
[5]; NADH and acetaldehyde
  V2/EtkpKiq: 6100 mM^−2 s^−1
[5]; [19]
  Kp, Michaelis constant for acetaldehyde: 4.7 mM
  V2/Et, turnover number for acetaldehyde reduction: 460 s⁻¹
  V2/Etkp, catalytic efficiency for acetaldehyde reduction: 98 mM⁻¹ s⁻¹
[6]; NADH and acetaldehyde
  V2/EtkpKiq: 19000 mM^−2 s^−1
[6]; [19]
  Kp, Michaelis constant for acetaldehyde: 12 mM
  V2/Et, turnover number for acetaldehyde reduction: 3000 s⁻¹
  V2/Etkp, catalytic efficiency for acetaldehyde reduction: 250 mM⁻¹ s⁻¹

## CCCCO [1-butanol]
H44R/H48Q yeast ADH [12]; 5 mM 1-butanol or 1-butanol-d9, 2 mM NAD^+, pH range from 6.5 to 10.5
  average isotope effect, butanol oxidation: 4.2
[2]
  Catalytic efficiency with butanol, fold lower than with ethanol: about 20 fold
[2]; 1-butanol
  Km: ~30 mM
[3]
  Catalytic efficiency with butanol, fold lower than with ethanol: about 20 fold

## OCC(F)(F)F [CF3CH2OH, 2,2,2-trifluoroethanol, reference compound]
[3]; read-out: Ki, CF3CH2OH, pH 7.3, 30 °C, 83 mM potassium phosphate, 40 mM KCl
  Ki: 2500 µM
[5]; [24]
  Ki: 19000 µM
[6]; [24]
  Ki: 33000 µM
[16]
  Ki: 55000 µM
